Ten compounds from patent US5776899A, “Polypeptide and anti-HIV agent prepared therefrom” (Seikagaku Corporation, priority 1993, dated 1998) can be followed below.

≈ marks a conversion by molar mass, not a printed value. Entries after “also recorded” stand apart in the source; their conditions may differ. Positions of bridges follow the written chain, without caps; N, C: chain ends. Non-standard residues stand in square brackets, D forms with d. Residues, ends and D or L forms follow the SMILES beside them. *: point of attachment. FITC = O=C1OC2(c3ccc(O)cc3Oc3cc(O)ccc32)c2ccc(NC(=S)*)cc21; Myristoyl = CCCCCCCCCCCCCC(=O)*; dOrn = NCCC[C@@H](N)C(=O)O; GABA = NCCCC(=O)O

Data set [1] concerns human immunodeficiency virus (HIV). Briefly: Antiviral activity against HIV in HIV-infected MT-4 cells (MTT method). It counts as cell-based. The note with it: for SI: rough ratio CC50/EC50. The procedure: (§1) HIV-infected MT-4 cells (2.5×10^4 cells/well, multiplicity of infection (MOI): 0.001) immediately after infection were added together with the test substance with various changes of the concentration to a 96-well microtitre plate. After incubation at 37° C. for 5 days in a CO2 incubator, the number of survivor cells was measured by the MTT method [Pauwels et al.; J. Virol. […] On the other hand, in order to know the cytotoxicity of the test substance on the MT-4 cells, virus-non-infected cells were incubated, likewise as above, together with the test compound with various changes of the concentration. […] Further, the rough ratio of CC50 to EC50, (CC50 /EC50) is expressed as an effective ratio (SI).

The test system of data set [2] is MT-4 cells. Briefly: Cytotoxicity on virus-non-infected MT-4 cells (MTT method). It is filed as cell-based. The protocol: as §1
(In general: Tetrazolium dyes change colour on reduction, which living cells bring about.)

[3] abbreviates: Table 5, method of Example 2, HIV-infected MT-4 cells.
[4] abbreviates: Table 5, method of Example 2, virus-non-infected MT-4 cells.
Setting [5] is: Table 4, HIV-infected MT-4 cells, MOI 0.001, 5 days.
Setting [6] is: Table 4, virus-non-infected MT-4 cells, 5 days.

Broadly, the EC50 is the concentration that produces a half-maximal response. Read a low EC50 as an effect from little substance. One may read the CC50 as the concentration at which the toxic effect on the cells reaches its halfway point. Read a high CC50 as lower toxicity to the cells. On to `CC(=O)N[C@@H](CCCNC(=N)N)C(=O)N[C@@H](CCCNC(=N)N)C(=O)N[C@@H](Cc1c[nH]c2ccccc12)C(=O)N[C@H]1CSSC[C@@H](C(=O)N[C@@H](CCCNC(=N)N)C(N)=O)NC(=O)[C@H](CCCCN)NC(=O)[C@H](CCCNC(=N)N)NC(=O)[C@H](Cc2ccc(O)cc2)NC(=O)[C@@H]2CCCN2C(=O)[C@@H](CCCCN)NC(=O)[C@H](CCCCN)NC(=O)[C@H](CCCNC(=N)N)NC(=O)[C@H](Cc2ccc(O)cc2)NC1=O` [Polypeptide (14), Ac--Arg--Arg --Trp--Cys--Tyr--Arg--Lys --DLys--Pro --Tyr--Arg--Lys--Cys--Arg--NH2] (Ac-RRWCYRK[dK]PYRKCR-NH2; disulfide 4-13), for which the “SI (CC50/EC50)” value in data set [1] (Table 5) is recorded as 3256. In data set [1] (setting [3]), this compound came in with an EC50 of 0.024 µg/mL (≈ 0.0118 µM). The compound further came in with a 50% cytotoxic concentration (CC50) in data set [2] (setting [4]) of 78.14 µg/mL (≈ 38.3 µM).
With `N=C(N)NCCC[C@H](NC(=O)[C@@H]1CSSC[C@H](NC(=O)[C@H](Cc2c[nH]c3ccccc23)NC(=O)[C@H](CCCNC(=N)N)NC(=O)[C@@H](N)CCCNC(=N)N)C(=O)N[C@@H](Cc2ccc(O)cc2)C(=O)N[C@@H](CCCNC(=N)N)C(=O)N[C@@H](CCCCN)C(=O)N[C@H]2CSSC[C@H](NC(=O)[C@H](Cc3ccc(O)cc3)NC(=O)CNC(=O)[C@H](CCCCN)NC(=O)[C@H](Cc3ccc(O)cc3)NC2=O)C(=O)N[C@@H](Cc2ccc(O)cc2)C(=O)N[C@@H](CCCNC(=N)N)C(=O)N[C@@H](CCCCN)C(=O)N1)C(N)=O` [Polypeptide T-22, reference compound] (H-RRWCYRKCYKGYCYRKCR-NH2; disulfide 4-17, 8-13 (inferred); N-terminus assumed), the EC50 amounted to 0.0099 µg/mL (≈ 0.00398 µM) in data set [1] (setting [5]) and 0.017 µg/mL (≈ 0.00684 µM) in data set [1] (setting [3]). Moreover, the SI in data set [1] (Table 4) was 5,465. In addition, the CC50 in data set [2] (setting [6]) came out at 54.1 µg/mL (≈ 21.8 µM); in data set [2] (setting [4]), 49.4 µg/mL (≈ 19.9 µM).
Consider `CCCCCCCCCCCCCC(=O)N[C@@H](CCCNC(=N)N)C(=O)N[C@@H](CCCNC(=N)N)C(=O)N[C@@H](Cc1c[nH]c2ccccc12)C(=O)N[C@H]1CSSC[C@@H](C(=O)N[C@@H](CCCNC(=N)N)C(N)=O)NC(=O)[C@H](CCCCN)NC(=O)[C@H](CCCNC(=N)N)NC(=O)[C@H](Cc2ccc(O)cc2)NC(=O)[C@@H]2CCCN2C(=O)[C@@H](CCCCN)NC(=O)[C@H](CCCCN)NC(=O)[C@H](CCCNC(=N)N)NC(=O)[C@H](Cc2ccc(O)cc2)NC1=O` [Polypeptide (17), Myr--Arg--Arg --Trp--Cys--Tyr--Arg--Lys --DLys--Pro --Tyr--Arg--Lys--Cys--Arg--NH2] (Myristoyl-RRWCYRK[dK]PYRKCR-NH2; disulfide 4-13), for which, in data set [1] (Table 5), the “SI (CC50/EC50)” value turned out to be 1838. The same compound had a 50% effective concentration (EC50) in data set [1] (setting [3]) of 0.055 µg/mL (≈ 0.0249 µM). Moreover, the half-maximal cytotoxic concentration (CC50) in data set [2] (setting [4]) is 106.60 µg/mL (≈ 48.3 µM).
Taken in the same sequence, the figures for `N=C(N)NCCC[C@H](NC(=O)[C@@H]1CSSC[C@H](NC(=O)[C@H](Cc2c[nH]c3ccccc23)NC(=O)[C@H](CCCNC(=N)N)NC(=O)[C@@H](N)CCCNC(=N)N)C(=O)N[C@@H](Cc2ccc(O)cc2)C(=O)N[C@@H](CCCNC(=N)N)C(=O)N[C@@H](CCCCN)C(=O)N2CCC[C@H]2C(=O)N[C@H](CCCCN)C(=O)N[C@@H](Cc2ccc(O)cc2)C(=O)N[C@@H](CCCNC(=N)N)C(=O)N[C@@H](CCCCN)C(=O)N1)C(N)=O` [Polypeptide (5), Arg--Arg --Trp--Cys--Tyr--Arg--Lys --Pro--DLys --Tyr--Arg--Lys--Cys--Arg--NH2] (H-RRWCYRKP[dK]YRKCR-NH2; disulfide 4-13) were 1321, 0.076 µg/mL (≈ 0.0381 µM) and 101.20 µg/mL (≈ 50.7 µM).
Turning to `N=C(N)NCCC[C@H](NC(=O)[C@@H]1CSSC[C@H](NC(=O)[C@H](Cc2c[nH]c3ccccc23)NC(=O)[C@H](CCCNC(=N)N)NC(=O)[C@@H](N)CCCNC(=N)N)C(=O)N[C@@H](Cc2ccc(O)cc2)C(=O)N[C@@H](CCCNC(=N)N)C(=O)N[C@@H](CCCCN)C(=O)N[C@H](CCCN)C(=O)N2CCC[C@H]2C(=O)N[C@@H](Cc2ccc(O)cc2)C(=O)N[C@@H](CCCNC(=N)N)C(=O)N[C@@H](CCCCN)C(=O)N1)C(N)=O` [Polypeptide (6), Arg--Arg --Trp--Cys--Tyr--Arg--Lys --DOrn--Pro --Tyr--Arg--Lys--Cys--Arg--NH2] (H-RRWCYRK[dOrn]PYRKCR-NH2; disulfide 4-13), the “SI (CC50/EC50)” value in data set [1] (Table 5) came out at 2728. Further, the half-maximal cytotoxic concentration (CC50) in data set [2] (setting [4]) was determined as 55.93 µg/mL (≈ 28.2 µM).
Turning to `N=C(N)NCCC[C@H](NC(=O)[C@@H]1CSSC[C@H](NC(=O)[C@H](Cc2c[nH]c3ccccc23)NC(=O)[C@H](CCCNC(=N)N)NC(=O)[C@@H](N)CCCNC(=N)N)C(=O)N[C@@H](Cc2ccc(O)cc2)C(=O)N[C@@H](CCCNC(=N)N)C(=O)N[C@@H](CCCCN)C(=O)N[C@@H](CCCCN)C(=O)NCC(=O)N[C@@H](Cc2ccc(O)cc2)C(=O)N[C@@H](CCCNC(=N)N)C(=O)N[C@@H](CCCCN)C(=O)N1)C(N)=O` [Polypeptide (3), Arg--Arg --Trp--Cys--Tyr--Arg--Lys --Lys--Gly --Tyr--Arg--Lys--Cys--Arg--NH2] (H-RRWCYRKKGYRKCR-NH2; disulfide 4-13), the “SI (CC50/EC50)” value in data set [1] (Table 5) is on record as 3477. This compound showed a concentration giving a half-maximal response (EC50) in data set [1] (setting [3]) of 0.057 µg/mL (≈ 0.0291 µM). The same compound showed a CC50 in data set [2] (setting [4]) of 198.18 µg/mL (≈ 101 µM).
In turn, `N=C(N)NCCC[C@H](NC(=O)[C@@H]1CSSC[C@H](NC(=O)[C@H](Cc2c[nH]c3ccccc23)NC(=O)[C@H](CCCNC(=N)N)NC(=O)[C@@H](N)CCCNC(=N)N)C(=O)N[C@@H](Cc2ccc(O)cc2)C(=O)N[C@@H](CCCNC(=N)N)C(=O)N[C@@H](CCCCN)C(=O)N[C@H](CCCCNC(=O)CN)C(=O)N2CCC[C@H]2C(=O)N[C@@H](Cc2ccc(O)cc2)C(=O)N[C@@H](CCCNC(=N)N)C(=O)N[C@@H](CCCCN)C(=O)N1)C(N)=O` (H-RRWCYRK[dK](Gly)PYRKCR-NH2; disulfide 4-13) returned an EC50 in data set [1] (setting [3]) of 0.03 µg/mL (≈ 0.0146 µM). Besides, in data set [2] (setting [4]), the 50% cytotoxic concentration (CC50) is 44.26 µg/mL (≈ 21.6 µM).
Take `N=C(N)NCCC[C@H](NC(=O)[C@@H]1CSSC[C@H](NC(=O)[C@H](Cc2c[nH]c3ccccc23)NC(=O)[C@H](CCCNC(=N)N)NC(=O)[C@@H](N)CCCNC(=N)N)C(=O)N[C@@H](Cc2ccc(O)cc2)C(=O)N[C@@H](CCCNC(=N)N)C(=O)N[C@@H](CCCCN)C(=O)N[C@H](CCCCNC(=O)CCCN)C(=O)N2CCC[C@H]2C(=O)N[C@@H](Cc2ccc(O)cc2)C(=O)N[C@@H](CCCNC(=N)N)C(=O)N[C@@H](CCCCN)C(=O)N1)C(N)=O` (H-RRWCYRK[dK](GABA)PYRKCR-NH2; disulfide 4-13): the “SI (CC50/EC50)” value in data set [1] (Table 5) was 11095. A half-maximal effect in data set [1] (setting [3]) (EC50) was put at 0.0165 µg/mL (≈ 0.00793 µM). In data set [2] (setting [4]), the CC50 worked out at 138.07 µg/mL (≈ 66.3 µM).
For the compound `N=C(N)NCCC[C@H](NC(=O)[C@@H]1CSSC[C@H](NC(=O)[C@H](Cc2c[nH]c3ccccc23)NC(=O)[C@H](CCCNC(=N)N)NC(=O)[C@H](CCCNC(=N)N)NC(=S)Nc2ccc3c(c2)C(=O)OC32c3ccc(O)cc3Oc3cc(O)ccc32)C(=O)N[C@@H](Cc2ccc(O)cc2)C(=O)N[C@@H](CCCNC(=N)N)C(=O)N[C@@H](CCCCN)C(=O)N[C@H](CCCCN)C(=O)N2CCC[C@H]2C(=O)N[C@@H](Cc2ccc(O)cc2)C(=O)N[C@@H](CCCNC(=N)N)C(=O)N[C@@H](CCCCN)C(=O)N1)C(N)=O` [Polypeptide (19), FTC--Arg--Arg --Trp--Cys--Tyr--Arg--Lys --DLys--Pro --Tyr--Arg--Lys--Cys--Arg--NH2] ({FITC}-RRWCYRK[dK]PYRKCR-NH2; disulfide 4-13), the “SI (CC50/EC50)” value in data set [1] (Table 5) came out at 39285. In data set [2] (setting [4]), this compound showed a CC50 of 38.47 µg/mL (≈ 16.1 µM).
Regarding `N=C(N)NCCC[C@H](NC(=O)[C@@H]1CSSC[C@H](NC(=O)[C@H](Cc2c[nH]c3ccccc23)NC(=O)[C@H](CCCNC(=N)N)NC(=O)[C@@H](N)CCCNC(=N)N)C(=O)N[C@@H](Cc2ccc(O)cc2)C(=O)N[C@@H](CCCNC(=N)N)C(=O)N[C@@H](CCCCN)C(=O)N[C@H](CCCCN)C(=O)N2CCC[C@H]2C(=O)N[C@@H](Cc2ccc(O)cc2)C(=O)N[C@@H](CCCNC(=N)N)C(=O)N[C@@H](CCCCN)C(=O)N1)C(N)=O` [Polypeptide (1), Arg--Arg--Trp--Cys--Tyr--Arg--Lys--DLys--Pro--Tyr--Arg--Lys--Cys--Arg--NH2] (H-RRWCYRK[dK]PYRKCR-NH2; disulfide 4-13), the values for the EC50 in data set [1] (setting [5]) and in data set [1] (setting [3]) were 0.0034 µg/mL (≈ 0.0017 µM) and 0.0195 µg/mL (≈ 0.00977 µM), respectively. Besides, the SI in data set [1] (Table 4) is given as 14,647. In data set [1] (Table 5), the “SI (CC50/EC50)” value is listed as 3352. For the same compound, the “anti-HIV activity compared with reference compound (in words)” value in data set [1] (text comment on the anti-HIV results) was “one-third the concentration of T-22; also recorded: slightly higher”. The CC50 came to 49.8 µg/mL (≈ 24.9 µM) in data set [2] (setting [6]) and 65.37 µg/mL (≈ 32.7 µM) in data set [2] (setting [4]). Besides, the “cytotoxicity compared with reference compound (in words)” value in data set [2] (text comment on Table 4) is reported as “the same cytotoxicity as that of T-22; also recorded: extremely low cytotoxicity”.
